Measured values published in US20240409878A1, “SYSTEM AND METHOD FOR PRESERVING ALGAE” (Macro Oceans Inc., priority 2023, published 2024).

System: algae sample
Experiment: preservation of an algae sample in a preserving solution
Parameters: species or system algae (e.g., sugar kelp, ribbon kelp, bull kelp, brown alga)
Conditions: for preservation of the algae by the preserving solution: for the target preserving duration; for critical preservation solution concentration: temperature excursions between 0° F. and 140° F., wet mass basis relative to algae mass
Description: The critical preservation solution concentration can depend on the amount of time the algae sample is to be preserved for, a preservation temperature, an algae species (or other taxonomical rank such as phylum, class, order, family, genus, intermediate ranks therebetween associated with the algae), humidity, moisture content, wet mass content of the algae sample (e.g., composition of the wet mass of the algae sample), dry mass content of the algae sample (e.g., composition of the dry mass of the algae sample), and/or other suitable. […] However, other critical values can be determined and/or arrived at (e.g., by controlling temperature excursions particularly high temperature range, for different types of algae, using a mixture of preserving agents to reduce the concentration of any single preserving agent, based on the amount of time to preserve the algae, etc.).
Preserving the received algae sample S300 preferably functions to extend a lifetime of the algae sample without significant degradation of the algae sample and/or products thereof or derived therefrom. S300 can preserve an as received algae sample (e.g., from S100, fresh harvested algae sample, etc.), a processed algae sample (e.g., from S200, an algae sample that was received after one or more processing steps such as in S200 or S400 has been performed, etc.), a previously preserved algae sample (e.g., preserved according to S300, preserved in a manner different from S300, dried algae sample, etc.), and/or any suitable algae sample.
The algae sample is typically not agitated (e.g., mixed) during (e.g., throughout) preservation (e.g., to simplify the preservation process). Alternatively stated, the algae sample is preferably mixed at most only once (e.g., at the beginning of S300 to homogenize the preserving solution and algae sample) and remains unmixed thereafter. However, the algae sample can be agitated during preservation (e.g., according to a schedule, at predetermined times, at a predetermined frequency, etc.).
The algae sample is typically preserved at approximately room temperature (e.g., an ambient temperature of an environment the algae sample is stored at). For instance, the algae sample can be preserved at a temperature between about 50° F. to 110° F. However, the algae sample can be stored at an elevated temperature (e.g., >110° F.), at a refrigeration temperature (e.g., 30-50° F.), freezing temperature (e.g., <about 30° F.), and/or at any suitable temperature. In some variants, the preserved algae sample can undergo temperature excursions as cold as about 0° F. and as high as 140° F. However, additionally or alternatively, the temperature can be controlled to within a target temperature range (e.g., a preservation temperature, a preservation temperature excursion range, etc.).
The algae sample is typically not fully sealed during preservation (e.g., evaporation of solvent, preservative, etc. can occur such as because the sample is loosely covered). […] For example, the algae sample can be preserved in a container where a lid is placed on the container to close the container but where the lid need not form a seal (e.g., is not a hermetic lid).

| Molecule | preservation duration before product degradation, mold growth, etc. was detected (5% alcohol solution, target about 1 year of preservation) | preservation of the algae by the preserving solution (less than 8% alcohol (e.g., 1%, 3%, 5%)) | critical preservation solution concentration (preserve for 2 months or less) | critical preservation solution concentration (preserve for 12 months or less) | preservation of the algae by the preserving solution (less than 9% carbonate (e.g., 5%)) | preservation of the algae by the preserving solution (less than 0.5% benzoate (e.g., 0.1%)) |
| --- | --- | --- | --- | --- | --- | --- |
| CCO [alcohol] | about 2 months | did not preserve the algae | at least 5 wt % | at least 8 wt % | – | – |
| O=C([O-])[O-].[Na+].[Na+] [sodium carbonate] | – | – | ≥ 9 wt % | – | did not preserve the algae | – |
| benzoate | – | – | – | – | – | did not preserve the algae |
